The IC50 is the midpoint of a concentration-inhibition curve.

Series [1] deals with mTOR (Homo sapiens, UniProt P42345). The series can be described thus: Lanthascreen kinase binding assay, assay G. Background: Time-resolved FRET reads energy transfer from a long-lived donor to a nearby acceptor.
Procedure: Lanthascreen™ Kinase Binding Assay for mTOR (G)
Binding of an inhibitor to the kinase competes for binding with the tracer, resulting in a loss of FRET.
50 nL of compound dilutions were dispensed onto white 384-well small volume polystyrene plate.
In series [2] the target is T1, PI 3-kinase delta (Rat-1_PI3Kdelta cells, Myr-HA-hp110 delta) (Homo sapiens, UniProt O00329).
T1 construct: expressed in transfected cells
T1 sequence (O00329 1-1044): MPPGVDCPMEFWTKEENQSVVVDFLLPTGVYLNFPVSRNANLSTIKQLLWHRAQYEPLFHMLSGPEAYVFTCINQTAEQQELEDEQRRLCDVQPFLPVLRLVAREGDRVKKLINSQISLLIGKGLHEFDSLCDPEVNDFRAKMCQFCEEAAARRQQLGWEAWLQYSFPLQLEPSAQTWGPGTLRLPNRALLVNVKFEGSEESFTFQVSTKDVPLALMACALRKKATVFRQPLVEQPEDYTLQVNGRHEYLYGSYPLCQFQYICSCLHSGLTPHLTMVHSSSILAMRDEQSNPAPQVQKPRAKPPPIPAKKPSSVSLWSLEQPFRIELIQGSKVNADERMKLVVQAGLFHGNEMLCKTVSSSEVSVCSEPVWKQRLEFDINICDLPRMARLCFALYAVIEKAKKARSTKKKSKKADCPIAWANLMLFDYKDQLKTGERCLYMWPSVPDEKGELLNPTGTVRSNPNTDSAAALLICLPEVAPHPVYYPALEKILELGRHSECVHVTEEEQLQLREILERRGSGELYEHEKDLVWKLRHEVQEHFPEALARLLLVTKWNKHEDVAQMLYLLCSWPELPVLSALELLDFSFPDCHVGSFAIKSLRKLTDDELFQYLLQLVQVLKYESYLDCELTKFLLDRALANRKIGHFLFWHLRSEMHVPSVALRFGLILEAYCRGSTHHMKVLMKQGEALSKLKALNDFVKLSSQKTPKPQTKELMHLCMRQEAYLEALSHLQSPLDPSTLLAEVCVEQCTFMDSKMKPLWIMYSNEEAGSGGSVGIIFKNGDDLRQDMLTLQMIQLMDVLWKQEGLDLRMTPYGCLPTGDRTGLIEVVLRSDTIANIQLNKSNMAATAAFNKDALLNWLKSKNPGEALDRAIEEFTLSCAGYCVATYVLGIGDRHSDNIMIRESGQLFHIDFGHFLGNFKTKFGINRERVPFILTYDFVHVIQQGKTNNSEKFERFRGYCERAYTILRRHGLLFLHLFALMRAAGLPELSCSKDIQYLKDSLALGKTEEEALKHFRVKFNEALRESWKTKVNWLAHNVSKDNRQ
In words: Cellular p-Akt (S473) assay, Surefire format, assay J1. In kind it is cell-based. As to conditions: non-asterisked data: version J1 (Surefire format); read-out: Assay J PI3Kδ IC50.
Source text: (§1) Cellular Assays for PI 3-Kinase Alpha (H1), Beta (I1) and Delta (J1): Surefire Format
(§2) AlphaScreen (Amplified Luminescent Proximity Homogeneous Assay, ALPHA, Perkin Elmer) is a non-radioactive bead-based proximity assay technology to study biomolecular interactions in a homogenous microtiter plate format. The brand name SureFire denotes AlphaScreen assays that are adapted to quantify the phosphorylation of endogenous cellular proteins in cell lysates, by using matched antibody pairs, which consist of an anti-phospho-kinase and an anti-kinase antibody. The assay allows characterization of kinase signaling in cells as well as measurement of kinase inhibitor effects.
(§3) Using Rat-1 cells stably expressing myr-HA-tagged versions of the human PI3Kdelta, PI3Kalpha, or PI3Kbeta p110 catalytic subunit isoforms, the assay was developed as a two-plate protocol in a 384-well format.
(§4) For compound testing, the cells were seeded at a density of 4000 (Rat-1_PI3Kdelta), 7500 (Rat-1_PI3Kalpha), or 6200 (Rat-1_PI3Kbeta) cells in 20 μl complete growth medium into cell culture treated 384-well plates and were grown at 37° C./5% CO2/90% humidity for 24 h. Shortly before compound transfer, the complete medium was removed, 30 μl assay buffer (DMEM high glucose, 1×MEM NEAA, 10 mM HEPES, 2 mM L-glutamine, 0.1% (w/v) BSA) was added and 10 μl of the compound predilutions were transferred to the cells.

The target in series [3] is T2, PI 3-kinase alpha (Rat-1_PI3Kalpha cells, Myr-HA-hp110 alpha) (Homo sapiens, UniProt P42336).
T2 construct: expressed in transfected cells
T2 sequence (P42336 whole entry): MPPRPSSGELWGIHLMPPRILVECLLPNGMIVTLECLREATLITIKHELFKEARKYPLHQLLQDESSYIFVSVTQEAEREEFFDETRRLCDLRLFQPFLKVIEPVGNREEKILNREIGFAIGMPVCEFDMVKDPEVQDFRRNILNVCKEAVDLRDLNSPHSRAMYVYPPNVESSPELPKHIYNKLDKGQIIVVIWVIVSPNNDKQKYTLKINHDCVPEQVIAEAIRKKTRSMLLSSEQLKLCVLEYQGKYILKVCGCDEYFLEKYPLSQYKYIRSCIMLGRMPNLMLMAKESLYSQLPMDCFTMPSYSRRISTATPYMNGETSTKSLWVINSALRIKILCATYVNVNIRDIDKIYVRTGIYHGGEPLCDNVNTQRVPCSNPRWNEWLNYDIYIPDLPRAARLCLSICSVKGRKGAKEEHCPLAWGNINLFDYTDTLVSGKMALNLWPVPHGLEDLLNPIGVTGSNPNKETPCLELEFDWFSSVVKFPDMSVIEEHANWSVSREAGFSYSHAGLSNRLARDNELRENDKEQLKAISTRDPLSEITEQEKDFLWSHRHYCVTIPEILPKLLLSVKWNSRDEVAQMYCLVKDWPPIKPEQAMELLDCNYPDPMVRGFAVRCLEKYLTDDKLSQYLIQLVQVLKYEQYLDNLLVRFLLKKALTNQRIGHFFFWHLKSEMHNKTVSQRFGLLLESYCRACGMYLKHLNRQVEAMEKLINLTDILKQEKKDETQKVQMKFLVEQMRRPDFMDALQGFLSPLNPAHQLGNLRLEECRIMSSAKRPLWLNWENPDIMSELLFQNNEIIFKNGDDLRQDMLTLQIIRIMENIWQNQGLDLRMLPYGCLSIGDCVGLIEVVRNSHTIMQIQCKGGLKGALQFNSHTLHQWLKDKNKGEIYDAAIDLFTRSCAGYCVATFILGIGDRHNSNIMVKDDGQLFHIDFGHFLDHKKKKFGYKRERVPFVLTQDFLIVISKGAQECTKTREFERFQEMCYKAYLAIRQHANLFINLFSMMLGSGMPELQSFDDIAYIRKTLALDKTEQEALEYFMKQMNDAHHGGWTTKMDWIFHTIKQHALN
In words: Cellular p-Akt (S473) assay, Surefire format, assay H1. Format: cell-based. As to conditions: non-asterisked data: version H1 (Surefire format); read-out: Assay H PI3Kα IC50.
Source text: as §1, §2, §3, §4

In series [4] the target is T3, PI 3-kinase beta (Rat-1_PI3Kbeta cells, Myr-HA-hp110 beta) (Homo sapiens, UniProt P42338).
T3 construct: expressed in transfected cells
T3 sequence (P42338 whole entry): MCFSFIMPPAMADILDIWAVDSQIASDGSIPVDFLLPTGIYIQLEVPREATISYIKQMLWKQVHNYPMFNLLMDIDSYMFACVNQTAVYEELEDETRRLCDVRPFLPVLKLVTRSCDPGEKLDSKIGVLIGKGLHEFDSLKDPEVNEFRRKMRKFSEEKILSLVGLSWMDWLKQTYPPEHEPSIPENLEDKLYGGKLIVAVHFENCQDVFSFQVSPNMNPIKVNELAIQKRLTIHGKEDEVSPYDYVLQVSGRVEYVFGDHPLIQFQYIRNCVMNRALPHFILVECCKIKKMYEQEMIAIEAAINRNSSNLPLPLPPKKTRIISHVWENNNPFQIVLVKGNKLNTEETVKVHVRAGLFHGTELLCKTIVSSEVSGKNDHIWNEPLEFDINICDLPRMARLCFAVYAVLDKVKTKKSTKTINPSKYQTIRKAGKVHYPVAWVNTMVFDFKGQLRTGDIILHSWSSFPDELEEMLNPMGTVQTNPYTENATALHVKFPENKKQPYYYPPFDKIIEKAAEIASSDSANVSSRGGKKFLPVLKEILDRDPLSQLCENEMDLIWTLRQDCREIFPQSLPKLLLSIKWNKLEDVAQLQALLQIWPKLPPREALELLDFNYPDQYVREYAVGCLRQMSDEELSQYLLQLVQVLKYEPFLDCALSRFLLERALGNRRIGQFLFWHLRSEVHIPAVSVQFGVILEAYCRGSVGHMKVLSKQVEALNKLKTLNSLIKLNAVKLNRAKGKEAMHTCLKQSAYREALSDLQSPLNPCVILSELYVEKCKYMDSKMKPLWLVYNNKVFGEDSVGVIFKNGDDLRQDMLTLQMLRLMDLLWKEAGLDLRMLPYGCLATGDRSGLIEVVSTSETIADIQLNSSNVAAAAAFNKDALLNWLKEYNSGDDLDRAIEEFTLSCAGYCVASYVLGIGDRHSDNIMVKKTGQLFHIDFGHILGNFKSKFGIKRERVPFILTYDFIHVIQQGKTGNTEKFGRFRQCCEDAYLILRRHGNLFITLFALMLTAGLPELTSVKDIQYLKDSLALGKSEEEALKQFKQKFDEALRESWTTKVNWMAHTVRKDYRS
The series can be described thus: Cellular p-Akt (S473) assay, Surefire format, assay I1. Format: cell-based. As to conditions: non-asterisked data: version I1 (Surefire format); read-out: Assay I PI3Kβ IC50.
Procedure: The assay allows characterization of kinase signaling in cells as well as measurement of kinase inhibitor effects.
as §3, §4
(§5) All fits were performed with the program XLfit4 (ID Business Solutions, Guildford, UK).

Series [5] addresses T4, PI 3-kinase gamma (U937 cells, MIP1α-stimulated AKT phosphorylation) (Homo sapiens, UniProt P48736).
T4 construct: endogenous in cells; host or cells: U937 human monocyte cell line
In words: Cellular U937 AKT assay (HTRF), assay K2. Format: cell-based. The conditions noted are these: HTRF format, read-out: Assay K2 PI3Kγ IC50.
Procedure: (§6) In assays K1 and K2, the compounds were tested for their ability to inhibit the production of phosphorylated AKT (Protein Kinase B) generated in a PI 3-kinase gamma isoform-dependent process in a U937 human cell line.
Cellular U937 AKT Assay for PI 3-Kinase Gamma (K2)
U937 cells are split every 3-4 days: 5×10^6 cells/flask (175 cm^2) in 40 ml.
Semi-automated preparation of cell lysates: Cells were resuspended in HBSS, seeded (200′000 cells/well/60 μl) into a 384-well plate and incubated in a humidified 37° C., 5% CO2 incubator for 1.5 hours. The compounds were diluted with HBSS and 40 μl were added to the starved cells (except for wells 24 I-P). […] The cells were then incubated for 30 minutes at 37° C. and 5% CO2. Stimulation occurred during 3 minutes by addition of 20 μl MIP1α (final 10 ng/ml, diluted in HBSS) in the incubator. Wells 24 A-H were only stimulated with HBSS.
The stimulation was then stopped by putting the cell plates on ice (filled with cold water). The cells were then centrifuged at 1200 rpm and 4° C. for 3 minutes.
80 μl of supernatant was removed. The cells were again centrifuged at 1200 rpm and 4° C. for 3 minutes. The supernatant was then removed by turning plates upside down and 30 μl of lysis buffer were added. The plate was incubated at room temperature for 30 minutes under shaking. 16 μl were then transferred to a ProxiPlate Plus 384-well. […]

The nature of series [6]: Microsomal clearance assay, assay M. In kind it is in vitro ADME. The conditions noted are these: intrinsic clearance in rat liver microsomes. For orientation: Liver microsomes are a subcellular fraction often used to study metabolism.
Procedure: The experiments were performed in 96-well glass plates at 37° C. on an automated Tecan EVO platform. Test compounds at a concentration of 10 mM in pure DMSO were diluted 1:1000 in water to 10 μM. […] Reactions were initiated by the addition of 150 μL of a cofactor solution containing 2 mM NADPH.
The target in series [7] is T4, PI 3-kinase gamma (U937 cells, MIP1α-stimulated AKT phosphorylation). The series can be described thus: Cellular U937 AKT assay (MSD), assay K1. In kind it is cell-based. The conditions noted are these: MSD format, read-out: Assay K1 PI3Kγ IC50.
Procedure: as §6
Cellular U937 AKT Assay for PI 3-Kinase Gamma (K1)
Cells are incubated at 37° C., 5% CO2.
Before beginning the cell manipulations described below, the MSD (Meso Scale Discovery) assay plate is blocked by addition of 150 μl/well blocking buffer supplied and incubated with shaking for a minimum of one hour at room temperature. All steps of the assay must be performed quickly, with accurately timed incubation periods and observing temperature controls where indicated.
falcon tube, counted and centrifuged for eight minutes at 300 g at room temperature. Supernatant is aspirated, the cell pellet resuspended and washed once in HBSS (Hank's Balanced Salt Solution) by centrifugation for eight minutes at 300 g at room temperature. […] Assay plates are incubated for 1.5 hours at 37° C., 5% CO2 to allow background AKT phosphorylation to reduce before the compound stimulation step.
Compound titrations are prepared in a fresh flat-bottomed, 96-well plate, by 10-fold serial dilution of 40 μM into HBSS 0.8% DMSO; pipette tips are replaced after each dilution is made. Compound concentrations at this stage are 4-times the final concentration required in the assay plate. Cells are stimulated with compound or HBSS 0.8% DMSO by direct transfer of 50 μl/well from the compound dilution plate. The assay plate containing compound-treated cells is then incubated for 30 minutes at 37° C. A standard plate layout is used for all experiments.
Compound-treated cells, in addition to positive control wells (“max MIP1α”), are stimulated with 50 μL per well of 40 ng/ml MIP1α (R&D Systems catalogue number 270-LD, lyophilized stock reconstituted to 50 μg/ml with PBS 0.1% BSA). Negative control wells (“min HBSS”), are stimulated with 50 μl/well of HBSS in the absence of MIP1α. Final compound concentrations are now diluted 4-fold giving a top concentration of 10 μM; where added, the final concentration of MIP1α is 10 ng/ml. Cells are incubated with MIP1α for 3 minutes, at 37° C., 5% CO2. After the three minute stimulation period, the assay plate is kept ice cold at all times. Assay plates are centrifuged for 2 minutes at 300 g, 4° C. and supernatant is removed by gently inverting, and then blotting the plate on tissue. Cells are then washed by gentle addition of 150 μL/well of ice cold HBSS and centrifugation at 300 g, for 5 minutes at 4° C. Supernatant is
aspirated and the plate blotted as described above. […] Plates are incubated on ice for 20 minutes before centrifugation at 841 g for 5 minutes, 4° C.
Block buffer is aspirated from the MSD plate, and the plate washed four times with 300 μl/well Tris wash buffer. 25 μL of cell lysate is then transferred from the assay plate to the washed MSD plate which is sealed and incubated at room temperature for one hour with shaking. […] The plate is washed four times with 300 μl per well of Tris wash buffer and 150 μl per well of Read buffer is added, taking care to avoid the introduction of bubbles. The plate is immediately read using an MSD SECTOR Imager 6000. Results are exported in Excel and the percentage of phosphorylated AKT is calculated using the equation: % Phosphoprotein=((2*Phospho signal)/(Phospho signal+Total signal))*100. Compound-mediated inhibition of AKT phosphorylation is analysed using Prizm V Graphpad software.
The target in series [8] is PI 3-kinase alpha (Homo sapiens, UniProt P42336). The series can be described thus: Kinase Glo luminescent kinase assay (Kglo), assay A. Format: biochemical. As to conditions: read-out: Assay A PI3Kα IC50. Background: Kinase-Glo reads ATP consumption through a luciferase reaction.
Sequence of PI 3-kinase alpha (P42336 whole entry): as the sequence (P42336 whole entry) above
Sequence of PI 3-kinase alpha (P27986 461-568 partner limits assumed): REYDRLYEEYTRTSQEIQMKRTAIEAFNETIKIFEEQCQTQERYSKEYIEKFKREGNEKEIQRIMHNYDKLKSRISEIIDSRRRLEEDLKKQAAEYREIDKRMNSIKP
Procedure: (§7) Kinase Glo Luminescent Kinase Assay (Kglo) for Pb 3-Kinase Alpha (A), Pb 3-Kinase Beta (B), Vps34 (C), Pb 4-Kinase Beta (D)
(§8) The Kinase Glo Luminescent Kinase Assay (Promega, Madison/Wis., USA) is a homogeneous HTS method of measuring kinase activity by quantifying the amount of ATP remaining in solution following a kinase reaction.
(§9) L-α-phosphatidylinositol (PI), provided as 10 mg/ml solution in methanol, was transferred into a glass tube and dried under a nitrogen beam. It was then resuspended in 3% OctylGlucoside (1-0-n-octyl-beta-D-glucopyranoside) by vortexing and stored at 4° C. 5 μL of a mix of PI/OctylGlucoside with the PI 3-kinase alpha and PI 3-kinase beta subtypes, or Vps34 or PI 4-kinase beta were added. Kinase reactions were started by the addition of 5 μl of an ATP-mix containing in a final volume 10 μL 10 mM TRIS-HCl pH 7.5, 3 mM MgCl2, 50 mM NaCl, 0.05% CHAPS, 1 mM DTT and 1 μM ATP at room temperature.
as §5
For series [9], the target named is PI 3-kinase gamma (Homo sapiens, UniProt P48736). The series can be described thus: TR-FRET Adapta assay, assay E. In kind it is biochemical.
Sequence of PI 3-kinase gamma (P48736 whole entry): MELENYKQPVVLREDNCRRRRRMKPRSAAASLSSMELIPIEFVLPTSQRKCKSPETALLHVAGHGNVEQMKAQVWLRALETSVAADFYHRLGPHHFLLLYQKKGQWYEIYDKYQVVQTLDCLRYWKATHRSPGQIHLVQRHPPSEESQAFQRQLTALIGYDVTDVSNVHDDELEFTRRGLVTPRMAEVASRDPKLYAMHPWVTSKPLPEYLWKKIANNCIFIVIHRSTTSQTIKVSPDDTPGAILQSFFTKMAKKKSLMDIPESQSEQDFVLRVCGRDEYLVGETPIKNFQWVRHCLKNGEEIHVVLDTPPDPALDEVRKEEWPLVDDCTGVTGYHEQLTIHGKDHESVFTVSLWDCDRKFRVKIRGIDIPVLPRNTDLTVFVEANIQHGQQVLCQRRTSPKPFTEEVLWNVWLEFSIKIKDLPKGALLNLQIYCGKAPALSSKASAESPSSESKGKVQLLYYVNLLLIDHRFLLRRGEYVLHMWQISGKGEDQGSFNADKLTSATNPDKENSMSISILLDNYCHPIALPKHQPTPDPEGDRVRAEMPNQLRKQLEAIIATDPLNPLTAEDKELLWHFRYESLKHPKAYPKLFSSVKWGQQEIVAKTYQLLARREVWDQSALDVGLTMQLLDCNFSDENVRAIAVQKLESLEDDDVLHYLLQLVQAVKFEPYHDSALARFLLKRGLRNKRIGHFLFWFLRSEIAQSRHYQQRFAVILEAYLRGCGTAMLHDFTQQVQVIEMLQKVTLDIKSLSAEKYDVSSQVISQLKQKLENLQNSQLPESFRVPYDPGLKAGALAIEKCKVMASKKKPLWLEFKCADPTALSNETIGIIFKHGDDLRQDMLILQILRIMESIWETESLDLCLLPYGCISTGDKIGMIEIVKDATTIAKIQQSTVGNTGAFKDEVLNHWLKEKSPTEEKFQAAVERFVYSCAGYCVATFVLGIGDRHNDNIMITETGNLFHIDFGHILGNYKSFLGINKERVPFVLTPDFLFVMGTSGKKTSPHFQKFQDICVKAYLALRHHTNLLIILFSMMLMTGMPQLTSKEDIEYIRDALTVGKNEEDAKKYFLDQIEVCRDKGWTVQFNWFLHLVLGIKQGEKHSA
Procedure: (§10) TR-FRET Adapta Assay for PI 3-Kinase Gamma (E), PI 3-Kinase Delta (F)
(§11) The TR-FRET Adapta™ Universal Kinase Assay Kit was purchased from lnvitrogen Corporation (Carlsbad/CA, USA) (Cat. No. PV5099).
(§12) PIK3CD substrate phosphatidylinositol (PI) was obtained from lnvitrogen (vesicules consisting of 2 mM phosphatidylinositol (PI) in 50 mM HEPES pH7.5; Cat. No. PV5371). PIK3CG substrate phosphatidylinositol-4,5-bisphosphate (PIP(4,5)2 was obtained from lnvitrogen (PIP2:PS large unilamellar vesicules consisting of 1 mM PIP2: 19 mM PS in 50 mM HEPES pH7.5, 3 mM MgCl2, 1 mM EGTA; Cat. No. PV5100).
(§13) The Adapta™ assay can be divided into two phases: a kinase reaction phase and an ADP detection phase. In the kinase reaction phase, all kinase reaction components are added to the well and the reaction is allowed to incubate for a set period of time specific for each kinase. […] In the presence of an inhibitor, the amount of ADP formed by the kinase reaction is reduced, and the resulting intact antibodytracer interaction maintains a high TR-FRET signal.
(§14) 50 nL of compound dilutions were dispensed onto white 384-well small volume polystyrene plate. […]
(§15) Data are analyzed using Excel fit software or Graphpad Prism. IC50 values were derived by fitting a sigmoidal dose-response curve to a plot of assay readout over inhibitor concentration. […]
The target of series [10] is PI 3-kinase delta (Homo sapiens, UniProt O00329). In words: TR-FRET Adapta assay, assay F.
Sequence of PI 3-kinase delta (P27986 461-568 partner limits assumed, one chain of several): as the sequence (P27986 461-568 partner limits assumed) above
Procedure: as §10, §11, §12, §13, §14, §15
Series [11] relates to IL-8-induced neutrophil shape change in human whole blood. The series can be described thus: Whole blood neutrophil shape change assay, assay L. Format: cell-based. As to conditions: read-out: Assay L WBSC IC50.
Procedure: Whole Blood Neutrophil Shape Change Assay (L)
IL-8 was made up to 2 μM stocks in 0.1% bovine serum albumin/PBS and stored at −80° C. On the day IL-8 was diluted in PBS (phosphate buffered saline) 10 minutes before use. IL-8 was used at final concentration of 2 nM and a concentration range from 0.003 to 200 nM for the donor dose response curve.
Assay fixative solution was prepared fresh each day from 10× concentrated CellFlX™ solution diluted 1:10 in sterile distilled water and then 1:4 with PBS. Assay fixative solution was kept on ice prior to use.
A 10× lysis buffer was prepared in advance by dissolving 20.75 g NH4Cl and 2.5 g KHCO3 in 250 ml sterile H2O. This 10× lysis buffer was filtered under sterile conditions and stored for up to two weeks at 4° C. On the day a 1× lysis solution was prepared with sterile distilled H2O and kept on ice prior to use.
The test compounds were prepared as 10 mM stock solutions in 100% DMSO and were stored at 4° C. Once in use for an assay 10 mM stock compounds were thawed and stored at RT protected from light. Compound dilutions were prepared fresh on the day. The first series of dilutions in 100% DMSO were done first thing in the morning. Only once blood had been collected and arrived in laboratory was the next set of dilutions into PBS carried out (1:10 PBS, 10% DMSO). This limited the exposure of diluted compound to plastic and made sure the exposure timing was consistent between assays.
Compound dilutions in 100% DMSO were prepared as described previously. Human whole blood was collected in K2 EDTA Vacutainers. Once blood was in the laboratory, compound dilutions into PBS were carried out as described previously and depicted in Table 1.
The outer wells of the deep well assay plate were filled with 1200 μl of sterile distilled H2O in an effort to limit edge effects (rows A1-H1, A1-A12, A12-H12).
An IL-8 dose response was determined for each blood donor examined, to monitor the donor response to IL-8. […] In addition the assay window without DMSO was also assessed each day. […]
Series [12] concerns the target Vps34 (Homo sapiens, UniProt Q8NEB9). In words: Kinase Glo luminescent kinase assay (Kglo), assay C. In kind it is biochemical.
Procedure: as §7, §8, §9, §5

Read-outs that look alike come from different tables or passages of the source.

T4 sequence (P48736 whole entry): as the sequence (P48736 whole entry) above
Sequence of Vps34 (Q8NEB9 whole entry, species assumed): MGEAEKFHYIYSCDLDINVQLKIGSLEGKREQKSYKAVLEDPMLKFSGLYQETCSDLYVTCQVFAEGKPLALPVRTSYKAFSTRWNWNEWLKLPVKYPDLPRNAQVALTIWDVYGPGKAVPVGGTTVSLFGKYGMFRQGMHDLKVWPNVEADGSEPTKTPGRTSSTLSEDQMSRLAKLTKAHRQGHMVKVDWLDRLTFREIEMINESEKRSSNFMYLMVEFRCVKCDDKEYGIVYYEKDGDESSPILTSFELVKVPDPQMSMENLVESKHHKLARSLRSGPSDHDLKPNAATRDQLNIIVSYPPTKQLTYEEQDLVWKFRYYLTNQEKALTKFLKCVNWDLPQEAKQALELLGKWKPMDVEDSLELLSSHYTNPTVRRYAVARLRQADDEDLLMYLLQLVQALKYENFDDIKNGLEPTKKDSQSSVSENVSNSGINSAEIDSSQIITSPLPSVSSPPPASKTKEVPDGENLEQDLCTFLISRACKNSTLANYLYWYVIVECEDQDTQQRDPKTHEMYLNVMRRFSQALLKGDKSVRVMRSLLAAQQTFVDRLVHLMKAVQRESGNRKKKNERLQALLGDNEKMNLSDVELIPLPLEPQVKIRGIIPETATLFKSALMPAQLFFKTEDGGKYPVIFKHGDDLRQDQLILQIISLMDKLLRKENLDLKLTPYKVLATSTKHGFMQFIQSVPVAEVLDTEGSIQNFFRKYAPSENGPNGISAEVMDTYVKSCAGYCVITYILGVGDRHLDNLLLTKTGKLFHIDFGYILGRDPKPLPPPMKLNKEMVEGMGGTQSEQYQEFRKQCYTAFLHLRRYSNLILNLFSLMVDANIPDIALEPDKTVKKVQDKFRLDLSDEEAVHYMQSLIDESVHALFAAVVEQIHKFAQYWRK

Turning to `Cc1ccc(S(=O)(=O)NC[C@](C)(O)C(F)(F)F)cc1-c1cnc(N)c(-n2cncn2)n1` [Example 127.23, (S)-3-(5-amino-6-(1H-1,2,4-triazol-1-yl)pyrazin-2-yl)-4-methyl-N-(3,3,3-trifluoro-2-hydroxy-2-methylpropyl)benzenesulfonamide], in series [1] (Lanthascreen kinase binding assay), the half-maximal inhibitory concentration (IC50) was determined as 9100 nM.
Consider `Cc1ncc(-c2nc(-c3cc(S(=O)(=O)NCCC(C)(C)O)ccc3C)cnc2N)o1` [Example 119.40, 3-(5-amino-6-(2-methyloxazol-5-yl)pyrazin-2-yl)-N-(3-hydroxy-3-methylbutyl)-4-methylbenzenesulfonamide], for which the half-maximal inhibitory concentration (IC50) in series [2] was determined as 1040 nM; in series [3], 1100 nM; in series [4] it was 8160 nM; in [5], 47 nM. Further, the “Assay M RLM CI(int)” value in series [6] was found to be 56 µL/min/mg.
In the case of `Cc1ccc(S(=O)(=O)NCC2CCC(C)(C)O2)cc1-c1cnc(N)c(-n2cncn2)n1` (stereo in doubt) [Example 127.40, (R)-3-(5-amino-6-(1H-1,2,4-triazol-1-yl)pyrazin-2-yl)-N-((5,5-dimethyltetrahydrofuran-2-yl)methyl)-4-methylbenzenesulfonamide], in series [7], the half-maximal inhibitory concentration (IC50) is 411 nM.
Regarding `Cc1ccc(S(=O)(=O)NCC2COCCN2C)cc1-c1cnc(N)c(-c2cn(C)nc2C)n1` (single isomer, unassigned) [Example 128.3a, (R or S)-3-(5-Amino-6-(1,3-dimethyl-1H-pyrazol-4-yl)pyrazin-2-yl)-4-methyl-N-((4-methylmorpholin-3-yl)methyl)benzenesulfonamide], the IC50 was 230 nM in series [8]; 241 nM in series [5]; 27 nM in series [9] (TR-FRET Adapta assay, read-out: Assay E PI3Kγ IC50); 570 nM in series [10].
`Cc1ccc(S(=O)(=O)NCCC(C)(C)O)cc1-c1cnc(N)c(-c2cccnc2OC(C)C)n1` [Reference example 119.12, 3-(5-amino-6-(2-isopropoxypyridin-3-yl)pyrazin-2-yl)-N-(3-hydroxy-3-methylbutyl)-4-methylbenzenesulfonamide]: in [9] (result in words), the “activity in assay E (PI 3-kinase gamma)” value is “not shown any activity”.
Regarding `Cc1ccc(S(=O)(=O)NCCC(C)(C)O)cc1-c1cnc(N)c(-c2cncnc2)n1` [Example 119.20, 3-(5-amino-6-(pyrimidin-5-yl)pyrazin-2-yl)-N-(3-hydroxy-3-methylbutyl)-4-methylbenzenesulfonamide], the IC50 in series [2] came to 7030 nM; in series [3], 4950 nM; in [4], 4860 nM.
`Cc1cc(-c2nc(-c3cc(S(=O)(=O)NC4CCOCC4)ccc3C)cnc2N)ccn1` [Example 129.10]: the IC50 in [11] was 1610 nM. In addition, in series [6], the “Assay M RLM CI(int)” value was found to be 78 µL/min/mg.
In the case of `Cc1ccc(S(=O)(=O)N[C@@H]2CCOC2)cc1-c1cnc(N)c(-n2cncn2)n1` [Example 127.20, (R)-3-(5-amino-6-(1H-1,2,4-triazol-1-yl)pyrazin-2-yl)-4-methyl-N-(tetrahydrofuran-3-yl)benzenesulfonamide], the IC50 in [7] worked out at 850 nM.
`Cc1ccc(S(=O)(=O)N[C@@H]2CNC[C@H]2O)cc1-c1cnc(N)c(-n2cncn2)n1` [Example 127.60]: the “Assay M RLM CI(int)” value in series [6] was 20 µL/min/mg.
As for `Cc1cc(-c2nc(-c3cc(S(=O)(=O)NCCC(C)(O)C(F)(F)F)ccc3C)cnc2N)ccn1` (stereo not drawn) [Example 129.13], the IC50 in series [3] was determined as 3000 nM.
The molecule `Cc1ccc(S(=O)(=O)NCC(C)(C)O)cc1-c1cnc(N)c(-c2nn(C)nc2C)n1` [Example 19, 3-[5-Amino-6-(2,5-dimethyl-2H-[1,2,3]triazol-4-yl)-pyrazin-2-yl]-N-(2-hydroxy-2-methyl-propyl)-4-methyl-benzenesulfonamide] gave an IC50 in series [12] of 9400 nM.
Still for that read-out and setting: in the case of `Cc1ncc(-c2nc(-c3cc(S(=O)(=O)NCC4(CO)CCOCC4)ccc3C)cnc2N)s1` [Example 45.9, 3-(5-Amino-6-(2-methylthiazol-5-yl)pyrazin-2-yl)-N-((4-(hydroxymethyl)tetrahydro-2H-pyran-4-yl)methyl)-4-methylbenzenesulfonamide] it was 9400 nM.
For `Cc1ccc(S(=O)(=O)NCC2(CO)CCOCC2)cc1-c1cnc(N)c(-n2cncn2)n1` [Example 127.50], the IC50 is 1070 nM in series [11] and 179 nM in series [7].
Take `Cc1nc(-c2nc(-c3cc(S(=O)(=O)NCCC(C)(C)O)ccc3C)cnc2N)cs1` [Example 119.30, 3-(5-amino-6-(2-methylthiazol-4-yl)pyrazin-2-yl)-N-(3-hydroxy-3-methylbutyl)-4-methylbenzenesulfonamide]: the IC50 in series [2] is 630 nM; in series [11], 1140 nM; in series [3], 690 nM; in series [4], 6990 nM; in series [7] it was 42 nM. Moreover, the “Assay M RLM CI(int)” value in series [6] worked out at 77 µL/min/mg.
With `Cc1ccc(S(=O)(=O)NCCC(C)(C)O)cc1-c1cnc(N)c(-c2ccnc(F)c2)n1` [Example 119.10, 3-(5-amino-6-(2-fluoropyridin-4-yl)pyrazin-2-yl)-N-(3-hydroxy-3-methylbutyl)-4-methylbenzenesulfonamide], the half-maximal inhibitory concentration (IC50) in series [2] came out at 1040 nM; in [3], 630 nM; in series [4], 2590 nM; in [7], 172 nM.
Take `Cc1cc(-c2nc(-c3cc(S(=O)(=O)NCC(C)(C)O)ccc3C)cnc2N)on1` [Example 88, 3-(5-Amino-6-(3-methylisoxazol-5-yl)pyrazin-2-yl)-N-(2-hydroxy-2-methylpropyl)-4-methylbenzenesulfonamide]: the half-maximal inhibitory concentration (IC50) in [1] and in [12] was 9100 nM in each case.

The record behind these values is patent publication US20180243297A1, “Amino pyrazine derivatives as phosphatidylinositol 3-kinase inhibitors” (Novartis AG, priority 2014, published 2018).
